Results on four molecules are retold here after patent US20110190267A1, “PRODRUGS OF OPIOIDS AND USES THEREOF” (priority 2010, published 2011).

The AUC is the area under the concentration-time curve, a measure of exposure. Broadly, the Cmax is the highest concentration seen after dosing. Usually Tmax stands for the time at which the peak concentration occurs. A word on the t½: it is the time in which the quantity being followed falls by half.

Where “and” joins values, the source holds several entries; their conditions need not be identical. Equal entries are not always repeated. Marks after values point to notes of the source that are not given here.

Data set [1] is described as follows: Pharmacokinetics of nalbuphine or nalbuphine PABA carbamate, rats (Example 42). It counts as in vivo, Wistar rats. The following applies: for half-life: read-out: t½ (converted).
Procedure: Test substances (nalbuphine at 3 mg nalbuphine free base equivalents/kg or nalbuphine para amino benzoic acid carbamate at 3 mg nalbuphine free base equivalents/kg) were administered by oral gavage to groups of male Wistar rats in a parallel group study design.
Blood samples were taken at various times after administration and submitted to analysis for the parent drug and pro-drug using a validated LC-MS-MS assay. Pharmacokinetic parameters derived from the plasma analytical data were determined using Win Nonlin.
The nature of data set [2]: Pharmacokinetics of dextrorphan or dextrorphan PABA carbamate, dogs (Example 48). It counts as in vivo, beagle dogs. As to the method: Data were normalized to 1 mg/kg
Data set [3] is described as follows: Pharmacokinetics of dextrorphan or dextrorphan PABA carbamate, monkeys (Example 47). The conditions noted are these: for half-life: read-out: t½ (converted). It counts as in vivo, cynomolgus monkeys.
Procedure: (§1) Blood samples were taken at various times after administration, and submitted to analysis for the parent drug and prodrug using a validated LC-MS-MS assay. Pharmacokinetic parameters derived from the plasma analytical data were determined using Win Nonlin.
Data set [4] can be described thus: Pharmacokinetics of levorphanol or levorphanol PABA carbamate, monkeys (Example 45). The following applies: levorphanol in plasma after oral levorphanol, 5 mg free base equivalent/kg; for half-life: read-out: t½ (converted). In kind it is in vivo.
Procedure: as §1
Data set [5] in a line: Pharmacokinetics of levorphanol or levorphanol PABA carbamate, dogs (Example 46). It counts as in vivo, Beagle dogs. The conditions noted are these: for AUC / Cmax / Tmax / half-life / T>50%Cmax: levorphanol in plasma after oral levorphanol, 5 mg free base equivalents/kg, female beagle dog; for AUC: AUClast; for half-life / T>50%Cmax: maximum of 30% extrapolation allowed; for half-life: read-out: t½ (converted).
Procedure: as §1

Where [6] appears, read: nalbuphine in plasma after oral nalbuphine, 3 mg free base equivalents/kg, male rats, single animal.
The mark [7] stands for this setting: nalbuphine PABA carbamate in plasma after oral p-aminobenzoic acid carbamate prodrug, 3 mg nalbuphine equivs/kg, male rats, single animal.
Where [8] appears, read: dextrorphan in plasma after oral dextrorphan, 5 mg free base equivalents/kg, female dogs, single animal.
The mark [9] stands for this setting: dextrorphan in plasma after oral dextrorphan, 5 mg free base equivalents/kg, male cynomolgus monkeys, single animal.
The mark [10] stands for this setting: male cynomolgus monkeys, single animal.
Where [11] appears, read: male, cynomolgus monkey, plasma, po, 5 mg levorphanol free base equivalents/kg, Mean.
The mark [12] stands for this setting: male, cynomolgus monkey, plasma, po, 5 mg levorphanol free base equivalents/kg, single animal.

Consider `Oc1ccc2c3c1O[C@H]1[C@@H](O)CC[C@@]4(O)[C@@H](C2)N(CC2CCC2)CC[C@]314` [nalbuphine], for which the AUC in data set [1] (male, Wistar, rat, plasma, po, 3 mg nalbuphine free base equivalents/kg, nalbuphine in plasma after oral nalbuphine, 3 mg free base equivalents/kg, Mean, read-out: AUC) was 1.2 ng·h/mL; in data set [1] (setting [6]) it was 1.8 ng·h/mL and 0.4 ng·h/mL and 1.3 ng·h/mL. In addition, the highest concentration (Cmax) in data set [1] (male, Wistar, rat, plasma, po, 3 mg nalbuphine free base equivalents/kg, nalbuphine in plasma after oral nalbuphine, 3 mg free base equivalents/kg, Mean, read-out: Cmax) is 1 ng/mL; in data set [1] (male, Wistar, rat, plasma, po, 3 mg nalbuphine free base equivalents/kg, nalbuphine in plasma after oral nalbuphine, 3 mg free base equivalents/kg, single animal, read-out: Cmax), 1.4 ng/mL; in data set [1] (setting [6]), 0.7 ng/mL and 0.8 ng/mL. The Tmax was determined as 0.8 h in data set [1] (male, Wistar, rat, plasma, po, 3 mg nalbuphine free base equivalents/kg, nalbuphine in plasma after oral nalbuphine, 3 mg free base equivalents/kg, Mean, read-out: Tmax); 0.5 h in data set [1] (male, Wistar, rat, plasma, po, 3 mg nalbuphine free base equivalents/kg, nalbuphine in plasma after oral nalbuphine, 3 mg free base equivalents/kg, single animal, read-out: Tmax); 1.0 h in data set [1] (setting [6]). In addition, the half-life in data set [1] (male, Wistar, rat, plasma, po, 3 mg nalbuphine free base equivalents/kg, nalbuphine in plasma after oral nalbuphine, 3 mg free base equivalents/kg, Mean) is 1.4 h; in data set [1] (male, Wistar, rat, plasma, po, 3 mg nalbuphine free base equivalents/kg, nalbuphine in plasma after oral nalbuphine, 3 mg free base equivalents/kg, single animal) it was 1.2 h. Moreover, the “T>50%Cmax” value in data set [1] (nalbuphine in plasma after oral nalbuphine, 3 mg free base equivalents/kg, male rats, Mean) is 1.3 h; in data set [1] (setting [6]), 1.5 h and 0.7 h and 1.8 h. For the same molecule, the t½ in data set [1] (setting [6]) was found to be 1.6 h.

On to `O=C(Nc1ccc(C(=O)O)cc1)Oc1ccc2c3c1O[C@H]1[C@@H](O)CC[C@@]4(O)[C@@H](C2)N(CC2CCC2)CC[C@]314` [nalbuphine PABA carbamate, nalbuphine para amino benzoic acid carbamate], for which the AUC was 11 ng·h/mL in data set [1] (male, Wistar, rat, plasma, po, 3 mg nalbuphine free base equivalents/kg, nalbuphine PABA carbamate in plasma after oral p-aminobenzoic acid carbamate prodrug, 3 mg nalbuphine equivs/kg, Mean, read-out: AUC); 14 ng·h/mL in data set [1] (male, Wistar, rat, plasma, po, 3 mg nalbuphine free base equivalents/kg, nalbuphine PABA carbamate in plasma after oral p-aminobenzoic acid carbamate prodrug, 3 mg nalbuphine equivs/kg, single animal, read-out: AUC); 9.4 ng·h/mL and 11 ng·h/mL in data set [1] (setting [7]). For the same molecule, the Cmax in data set [1] (male, Wistar, rat, plasma, po, 3 mg nalbuphine free base equivalents/kg, nalbuphine PABA carbamate in plasma after oral p-aminobenzoic acid carbamate prodrug, 3 mg nalbuphine equivs/kg, Mean, read-out: Cmax) was 12 ng/mL; in data set [1] (male, Wistar, rat, plasma, po, 3 mg nalbuphine free base equivalents/kg, nalbuphine PABA carbamate in plasma after oral p-aminobenzoic acid carbamate prodrug, 3 mg nalbuphine equivs/kg, single animal, read-out: Cmax), 16 ng/mL; in data set [1] (setting [7]), 11 ng/mL and 9.2 ng/mL. The Tmax in data set [1] (male, Wistar, rat, plasma, po, 3 mg nalbuphine free base equivalents/kg, nalbuphine PABA carbamate in plasma after oral p-aminobenzoic acid carbamate prodrug, 3 mg nalbuphine equivs/kg, Mean, read-out: Tmax) was determined as 0.25 h; in data set [1] (male, Wistar, rat, plasma, po, 3 mg nalbuphine free base equivalents/kg, nalbuphine PABA carbamate in plasma after oral p-aminobenzoic acid carbamate prodrug, 3 mg nalbuphine equivs/kg, single animal, read-out: Tmax), 0.25 h. Besides, the half-life in data set [1] (male, Wistar, rat, plasma, po, 3 mg nalbuphine free base equivalents/kg, nalbuphine PABA carbamate in plasma after oral p-aminobenzoic acid carbamate prodrug, 3 mg nalbuphine equivs/kg, Mean) is 0.8 h. Further, in data set [1] (setting [7]), the t½ is 0.5 h and 0.8 h and 1.2 h.

For `CN1CC[C@@]23CCCC[C@@H]2[C@@H]1Cc1ccc(O)cc13` [dextrorphan], the “T>50%Cmax” value in data set [2] (dextrorphan in plasma after oral dextrorphan, 5 mg free base equivalents/kg, female dogs, Mean) was 2.4 h; in data set [2] (setting [8]) it was 2.9 h (2×) and 2.4 h and 2.2 h and 1.6 h; in data set [3] (dextrorphan in plasma after oral dextrorphan, 5 mg free base equivalents/kg, male cynomolgus monkeys, Mean), 3.5 h; in data set [3] (setting [9]), 3.7 h and 3.5 h and 4.5 h and 2.5 h and 3.3 h. Moreover, the area under the curve (AUC) is 18.9 ng·h/mL and 13.4 ng·h/mL and 8.3 ng·h/mL and 10.7 ng·h/mL and 12.4 ng·h/mL in data set [2] (setting [8]); 12.7 ng·h/mL in data set [2] (female, beagle, dog, plasma, po, 5 mg dextrorphan free base equivalents/kg, dextrorphan in plasma after oral dextrorphan, 5 mg free base equivalents/kg, female dogs, Mean, read-out: AUC); 14* ng · h/mL and 19 ng · h/mL (2×) and 13 ng · h/mL in data set [3] (dextrorphan in plasma after oral dextrorphan, 5 mg free base equivalents/kg, male cynomolgus monkeys, single animal (animal 12: extrapolation of AUC data 39%)); 17 ng·h/mL in data set [3] (male, cynomolgus monkey, plasma, po, 5 mg dextrorphan free base equivalents/kg, dextrorphan in plasma after oral dextrorphan, 5 mg free base equivalents/kg, male cynomolgus monkeys, Mean, read-out: AUC); 20 ng·h/mL in data set [3] (male, cynomolgus monkey, plasma, po, 5 mg dextrorphan free base equivalents/kg, read-out: AUC). For the same molecule, the highest concentration (Cmax) was 4.2 ng/mL and 2.1 ng/mL and 3.8 ng/mL and 2.7 ng/mL in data set [2] (setting [8]); 3.3 ng/mL in data set [2] (female, beagle, dog, plasma, po, 5 mg dextrorphan free base equivalents/kg, dextrorphan in plasma after oral dextrorphan, 5 mg free base equivalents/kg, female dogs, Mean, read-out: Cmax); 3.6 ng/mL in data set [2] (female, beagle, dog, plasma, po, 5 mg dextrorphan free base equivalents/kg, dextrorphan in plasma after oral dextrorphan, 5 mg free base equivalents/kg, female dogs, single animal, read-out: Cmax); 3.0 ng/mL and 3.5 ng/mL and 5.5 ng/mL in data set [3] (setting [9]); 3.9 ng/mL in data set [3] (male, cynomolgus monkey, plasma, po, 5 mg dextrorphan free base equivalents/kg, dextrorphan in plasma after oral dextrorphan, 5 mg free base equivalents/kg, male cynomolgus monkeys, Mean, read-out: Cmax); 4.3 ng/mL in data set [3] (male, cynomolgus monkey, plasma, po, 5 mg dextrorphan free base equivalents/kg, dextrorphan in plasma after oral dextrorphan, 5 mg free base equivalents/kg, male cynomolgus monkeys, single animal, read-out: Cmax). Besides, the Tmax in data set [2] (setting [8]) is 1.0 h; in data set [2] (female, beagle, dog, plasma, po, 5 mg dextrorphan free base equivalents/kg, dextrorphan in plasma after oral dextrorphan, 5 mg free base equivalents/kg, female dogs, Mean, read-out: Tmax), 0.6 h; in data set [2] (female, beagle, dog, plasma, po, 5 mg dextrorphan free base equivalents/kg, dextrorphan in plasma after oral dextrorphan, 5 mg free base equivalents/kg, female dogs, single animal, read-out: Tmax), 0.5 h; in data set [3] (setting [9]), 1.0 h; in data set [3] (male, cynomolgus monkey, plasma, po, 5 mg dextrorphan free base equivalents/kg, dextrorphan in plasma after oral dextrorphan, 5 mg free base equivalents/kg, male cynomolgus monkeys, Mean, read-out: Tmax) it was 1.6 h; in data set [3] (male, cynomolgus monkey, plasma, po, 5 mg dextrorphan free base equivalents/kg, dextrorphan in plasma after oral dextrorphan, 5 mg free base equivalents/kg, male cynomolgus monkeys, single animal, read-out: Tmax), 2 h. The “T>50% Cmax of dextrorphan” value in data set [2] (dogs, oral) worked out at 2.4 h. For the same molecule, the half-life was 3.1 h in data set [2] (female, beagle, dog, plasma, po, 5 mg free base equivalents/kg, dextrorphan in plasma after oral dextrorphan, 5 mg free base equivalents/kg, female dogs, Mean, read-out: t½ (converted)); 2.1 h in data set [3] (male, cynomolgus monkey, plasma, po, 5 mg dextrorphan free base equivalents/kg, dextrorphan in plasma after oral dextrorphan, 5 mg free base equivalents/kg, male cynomolgus monkeys, Mean); 2.3 h in data set [3] (male, cynomolgus monkey, plasma, po, 5 mg dextrorphan free base equivalents/kg, dextrorphan in plasma after oral dextrorphan, 5 mg free base equivalents/kg, male cynomolgus monkeys, single animal).

For the molecule `CN1CC[C@]23CCCC[C@H]2[C@H]1Cc1ccc(O)cc13` [levorphanol], the exposure (AUC) was 28 ng·h/mL and 34 ng·h/mL and 27 ng·h/mL in data set [4] (setting [10]); 28 ng·h/mL in data set [4] (male, cynomolgus monkey, plasma, po, 5 mg levorphanol free base equivalents/kg, Mean, read-out: AUC); 22 ng·h/mL in data set [4] (male, cynomolgus monkey, plasma, po, 5 mg levorphanol free base equivalents/kg, single animal, read-out: AUC); 10 ng·h/mL in data set [5] (female, beagle, dog, plasma, po, 5 mg levorphanol free base equivalents/kg, Mean, read-out: AUC); 5.8 ng·h/mL and 19 ng·h/mL and 16 ng·h/mL and 6.6 ng·h/mL and 2.8 ng·h/mL in data set [5] (single animal). The peak concentration (Cmax) is 6.6 ng/mL and 8.2 ng/mL and 7.6 ng/mL in data set [4] (setting [10]); 7.1 ng/mL in data set [4] (male, cynomolgus monkey, plasma, po, 5 mg levorphanol free base equivalents/kg, Mean, read-out: Cmax); 6.2 ng/mL in data set [4] (male, cynomolgus monkey, plasma, po, 5 mg levorphanol free base equivalents/kg, single animal, read-out: Cmax); 3.8 ng/mL in data set [5] (female, beagle, dog, plasma, po, 5 mg levorphanol free base equivalents/kg, Mean, read-out: Cmax); 4.2 ng/mL and 3.2 ng/mL and 5.3 ng/mL and 4.3 ng/mL and 1.9 ng/mL in data set [5] (single animal). The t½ in data set [4] (setting [10]) is 2.1 h and 1.6 h. The Tmax is 1.5 h in data set [4] (setting [11]); 2 h in data set [4] (setting [12]); 0.6 h in data set [5] (female, beagle, dog, plasma, po, 5 mg levorphanol free base equivalents/kg, Mean, read-out: Tmax); 1 h in data set [5] (female, beagle, dog, plasma, po, 5 mg levorphanol free base equivalents/kg, single animal, read-out: Tmax); 0.5 h in data set [5] (single animal). The half-life in data set [4] (setting [11]) is 1.7 h; in data set [4] (setting [12]) it was 1.5 h; in data set [5] (female, beagle, dog, plasma, po, 5 mg levorphanol free base equivalents/kg, Mean), 1.2 h; in data set [5] (female, beagle, dog, plasma, po, 5 mg levorphanol free base equivalents/kg, single animal) it was 0.8 h. Also, the “T>50%Cmax of levorphanol” value in data set [5] (dogs, oral 5 mg levorphanol free base equivalents/kg) came to 1.4 h. Besides, the “T>50%Cmax” value in data set [5] (Mean) is 1.4 h; in data set [5] (single animal), 1.5 h and 1.3 h.
